Laboratory results as given in publication PMC12068666, “Synthesis of thiazole-integrated pyrrolotriazinones: evaluations of cytotoxicity and effects on PI3K levels in cancer cells” (Turkish Journal of Chemistry, 2025).
“Also recorded” adds a separate entry of the source.

How the values were obtained:
[1] = molecular target: PI3K enzyme; settings: cited from earlier work
[2] = test system: MCF-7 cells; test: MTT assay, antiproliferative activity, MCF-7; format: cell-based, human; settings: for IC50: Homo sapiens, MCF7, MTT, 24 h treatment, mean ± SD; for Selectivity Index (SI) MCF-7: IC50 of healthy cells (NIH/3T3)/IC50 of cancer cells
Experimental: (§1) MCF-7 (human ER + breast cancer, HTB-22, USA), A549 (human nonsmall cell lung cancer, ATTC CRM-CCL-185, USA), HepG2 (human liver cancer, ATTC HB-8065, USA), and NIH/3T3 (mouse embryonic fibroblast, ATCC, CRL-1658, USA) cells were maintained in DMEM supplemented with 10% fetal bovine serum and 1% penicillin/streptomycin. The cells were maintained under appropriate conditions (37 °C, 5% CO2).
(§2) The antiproliferative activity of the newly synthesized compounds was measured using the MTT assay as described in a previous study. Briefly, cells were seeded at a density of 6 × 10^3 cells/well and incubated for 24 h in a 37 °C humidified incubator with 5% CO2. Afterwards, the cells were treated with increasing concentrations (1, 2.5, 5, 10, 25, 50, 75, and 100 μM) of compounds and incubated for another 24 h. Moreover, some cells were incubated with doxorubicin (1, 5, 10, 25, and 50 μM) for comparison, while other cells treated only with 1% DMSO was used as the solvent control. After incubation, 20 μL of MTT solution (5 mg/mL in PBS) was added to each well, and the plate was incubated for 4 h under the same conditions. Following this period, the medium was discarded and replaced with DMSO. The absorbance of dissolved formazan crystals was measured using a multiplate reader. The IC50 value and the selectivity index of each compound were calculated as previously described.
(§3) The antiproliferative effect of all newly synthesized thiazole-integrated pyrrolotriazinone derivatives were assessed against cancer cell lines (MCF-7, A549, and HepG2) as well as a healthy cell line (NIH/3T3) using the MTT assay. The IC50 values were determined through the nonlinear regression algorithm for log (inhibitor) versus normalized response-variable slope, as implemented in GraphPad [Y = 100/(1 + 10^X−LogIC50), where X represents the logarithm of the inhibitor concentration and Y denotes the response]. Additionally, Selectivity Indices (SI: IC50 of healthy cells/IC50 of cancer cells) were calculated.

[3] = test system: HepG2 cells; test: MTT assay, antiproliferative activity, HepG2; format: cell-based, human; settings: for IC50: Homo sapiens, HepG2, MTT, 24 h treatment, mean ± SD
Experimental: as §1, §2, §3

[4] = test system: A549 cells; test: MTT assay, antiproliferative activity, A549; format: cell-based, human; settings: for IC50: Homo sapiens, A549, MTT, 24 h treatment, mean ± SD; for Selectivity Index (SI) A549: IC50 of healthy cells (NIH/3T3)/IC50 of cancer cells
Experimental: as §1, §2, §3

[5] = test system: PI3K; test: PI3K protein levels by ELISA in MCF-7 cells; format: cell-based, human; settings: IC50 concentration, 24 h, compared to 1% DMSO control
Experimental: (§4) The protein levels of PI3K in MCF-7 and HepG2 cells were assessed using enzyme-linked immunosorbent assay (ELISA) kits. […] After the incubation period, the medium was collected, and PI3K protein levels were measured using ELISA kits according to the manufacturer’s instructions (Cat no: ELK9879, ELK Biotechnology, Denver, USA).

[6] = test system: NIH/3T3 cells; test: MTT assay, healthy cell line NIH/3T3; format: cell-based; settings: Mus musculus, NIH3T3, 24 h treatment, mean ± SD
Experimental: as §1, §2, §3

[7] = test system: PI3K; test: PI3K protein levels by ELISA in HepG2 cells; format: cell-based, human; settings: IC50 concentration, 24 h, compared to 1% DMSO control
Experimental: as §4

Row | SMILES | IC50 [1] [µM] | IC50 [2] [µM] | Selectivity Index (SI) MCF-7 [2] | IC50 [3] [µM] | Selectivity Index (SI) HepG2 ([3]; IC50 of healthy cells (NIH/3T3)/IC50 of cancer cells) | IC50 [4] [µM] | Selectivity Index (SI) A549 [4] | PI3K protein levels in MCF-7 cells [5] | IC50 [6] [µM] | PI3K protein levels in HepG2 cells [7]
1 | Cc1ccccc1-n1c(Cn2cnc3c(N)ncnc32)nn2ccc(C)c2c1=O [Compound 5] | 0.11 | – | – | – | – | – | – | – | – | –
2 | Cc1ccn2nc(C(C)n3cnc4c(N)ncnc43)n(-c3ccccc3)c(=O)c12 (centres unmarked) [Compound 6] | 0.075 | – | – | – | – | – | – | – | – | –
3 | O=c1n(-c2nc(-c3ccc(Cl)c(Cl)c3)cs2)ncc2cccn12 [Compound 25, 3-(4-(3,4-dichlorophenyl)thiazol-2-yl)pyrrolo[1,2-d][1,2,4]triazin-4(3H)-one] | – | 8.1 ± 0.17 | 13.60 | 7.21 | 15.20 | 38.7 ± 0.4 | 2.84 | significantly reduced; also recorded: significant reduction in PI3K protein levels | > 100 | markedly diminished; also recorded: significant reduction in PI3K protein levels
4 | O=c1n(-c2nc(-c3ccc(Cl)cc3Cl)cs2)ncc2cccn12 [Compound 27, 3-(4-(2,4-dichlorophenyl)thiazol-2-yl)pyrrolo[1,2-d][1,2,4]triazin-4(3H)-one] | – | 9.23 ± 1.09 | 10.30 | 6.18 ± 0.63 | – | 37.2 ± 1.15 | 2.83 | significantly reduced; also recorded: reduced PI3K levels; also recorded: significant reduction in PI3K protein levels | > 100 | markedly diminished; also recorded: reduced PI3K levels; also recorded: significant reduction in PI3K protein levels
5 | Cc1ccccc1-n1c(Cn2cnc3c(N)ncnc32)nc2cccc(C)c2c1=O [IC87114] | 0.13 | – | – | – | – | – | – | – | – | –
